# Laboratory results reported in patent publication US20200245620A1 (priority 2018, published 2020).
# Values joined by “and” are separate entries in the source; they are usually repeats but may differ in a detail not shown here. Equal entries are not always repeated. Where two headings read alike, the source gives them in different places.
# Columns and labels:
# rust of wheat = conditions: in vivo
# Fusarium graminearum = experiment: microbe, parasite or virus in culture; assay type: cell-based; conditions: for EC50: F.g sensitive strains
# wheat scab = assay type: in vivo
# Fusarium asiaticum = experiment: microbe, parasite or virus in culture; assay type: cell-based
# powdery mildew of wheat = experiment: Field efficacy on wheat diseases; assay type: in vivo; conditions: 40 g a.i./Mu
# Experimental: (§1) The field prevention and control efficacy of the fungicidal composition preparations of embodiments 1-8 on wheat diseases was experimented. The experimental field was arranged in Jiangsu Yancheng Xinyang Farm. The wheat variety was Huaimai 33. At the initial stage of wheat blooming, a Nongjiale 16L knapsack electric sprayer was adopted to carry out application for the first time, application was carried out for the second time after five days, water consumption was 50 kg/Mu, the area of each plot was 50 square meters, each treatment was repeated for three times, and the fungicidal composition was not applied on the blank control. Meanwhile, 80 g of carbendazim wettable powder which was 50 percent was used as a control agent for treatment per mu. According to a corresponding method specified by the industrial standard of Guidelines for the Field Efficacy Trials of Fungicides issued by the Ministry of Agriculture, the occurrences of powdery mildew, rust, sheath blight and leaf blight of wheat were investigated at the stage of milky ripeness, disease indexes and prevention and control effects were calculated, and the result is shown in table 7.
# sheath blight of wheat = experiment: Field efficacy on wheat diseases; assay type: in vivo; conditions: 40 g a.i./Mu
# Experimental: as §1
# leaf blight of wheat = experiment: Field efficacy on wheat diseases; assay type: in vivo; conditions: 40 g a.i./Mu
# Experimental: as §1
# wheat scab fungi = assay type: in vivo
# barley leaf blight = experiment: Field efficacy on barley diseases; assay type: in vivo
# Experimental: (§2) The field prevention and control efficacy of the fungicidal composition preparations of embodiments 1-8 on barley diseases was experimented, wherein different doses of single jinggangmycin agent and single ipconazole agent were designed for treatment. In 2014, application was carried out for the first time at the initial stage of barley blooming, application was carried out for the second time after five days, water consumption was 50 kg/Mu, the area of each plot was 50 square meters, each treatment was repeated for three times, and the fungicidal composition was not applied on the blank control. A conventional agent, polyketone wettable powder, was adopted as a control agent. According to a corresponding method specified by the industrial standard of Guidelines for the Field Efficacy Trials of Fungicides issued by the Ministry of Agriculture, the occurrences of barley scab, powdery mildew, rust and leaf blight were investigated at the stage of milky ripeness, disease indexes and prevention and control effects were calculated, and the result is shown in table 8. One hundred and fifty barley ears were sampled randomly every five treated points at the stage of wax ripeness, taken in for threshing and assayed according to the method of application embodiment 1, and toxin contents of the kernels were calculated.
# barley powdery mildew = experiment: Field efficacy on barley diseases; assay type: in vivo
# Experimental: as §2
# [1] = tested on: barley scab (fusarium head blight); assay type: in vivo
# barley rust = conditions: in vivo
# [2] = tested on: barley scab (fusarium head blight); assay type: in vivo; remark: listed apart in the source
# [3] = tested on: Carbendazim-resistant fusarium asiaticum; experiment: microbe, parasite or virus in culture; assay type: cell-based; conditions: for inhibition at 1 µg/mL / inhibition at 10 µg/mL / inhibition at 100 µg/mL / inhibition at 1000 µg/mL / inhibition at 10000 µg/mL: Fusarium asiaticum, read-out: DON Biosynthesis Inhibition Rate
# Tri5 gene = assay type: cell-based, fusarium asiaticum
# [4] = Fusarium asiaticum, read-out: Growth Inhibition Rate
smiles,measurement,setting,value
"COC(=O)Nc1nc2ccccc2[nH]1 [Carbendazim, carbendazim]","Disease Index Prevention Effect, Rust",rust of wheat,61.24%
same,EC50,Fusarium graminearum; Fusarium graminearum,0.45 µg/mL
same,"Disease Index Prevention Effect, Actual Prevention Effect",wheat scab; 40 g a.i./Mu,67.5%
same,EC50,Fusarium asiaticum; Fusarium asiaticum,0.45 µg/mL
same,"Disease Index Prevention Effect, Powdery Mildew",powdery mildew of wheat,52.62%
same,"Disease Index Prevention Effect, Sheath Blight",sheath blight of wheat,44.65%
same,"Disease Index Prevention Effect, Leaf Blight",leaf blight of wheat,48.53%
same,DON Contamination Reduction Rate,wheat scab fungi; 40 g a.i./Mu,58.42%
same,Grain Toxin Content,wheat scab fungi; 40 g a.i./Mu,4.42 μg of toxin/g of kernels
CC(C)C1CCC(Cc2ccc(Cl)cc2)C1(O)Cn1cncn1 (stereo not shown) [Ipconazole],"Disease Index Prevention Effect, Leaf Blight",barley leaf blight; ipconazole 5 g a.i./Mu,64.29%
same,"Disease Index Prevention Effect, Leaf Blight",barley leaf blight; ipconazole 10 g a.i./Mu,75.34%
same,"Disease Index Prevention Effect, Powdery Mildew",barley powdery mildew; ipconazole 5 g a.i./Mu,76.24%
same,"Disease Index Prevention Effect, Powdery Mildew",barley powdery mildew; ipconazole 10 g a.i./Mu,85.64%
same,EC50,Fusarium graminearum; Fusarium graminearum,0.89 µg/mL
same,inhibition at 0.0125 µg/mL,"Fusarium graminearum; Fusarium graminearum, read-out: Growth Inhibition Rate, sensitive strains, 0.0125 μg/mL",28.9%
same,inhibition at 0.025 µg/mL,"Fusarium graminearum; Fusarium graminearum, read-out: Growth Inhibition Rate, sensitive strains, 0.025 μg/mL",38.3%
same,inhibition at 0.05 µg/mL,"Fusarium graminearum; Fusarium graminearum, read-out: Growth Inhibition Rate, sensitive strains, 0.05 μg/mL",40.8%
same,inhibition at 0.1 µg/mL,"Fusarium graminearum; Fusarium graminearum, read-out: Growth Inhibition Rate, sensitive strains, 0.1 μg/mL",> 50%
same,inhibition at 0.2 µg/mL,"Fusarium graminearum; Fusarium graminearum, read-out: Growth Inhibition Rate, sensitive strains, 0.2 μg/mL",77.1%
same,Average Fungal Colony Diameter,"Fusarium graminearum; sensitive strains, 0.0125 μg/mL",53.5 mm
same,Average Fungal Colony Diameter,"Fusarium graminearum; sensitive strains, 0.025 μg/mL",46.4 mm
same,Average Fungal Colony Diameter,"Fusarium graminearum; sensitive strains, 0.05 μg/mL",44.5 mm
same,Average Fungal Colony Diameter,"Fusarium graminearum; sensitive strains, 0.1 μg/mL",31.8 mm
same,Average Fungal Colony Diameter,"Fusarium graminearum; sensitive strains, 0.2 μg/mL",17.2 mm
same,"Disease Index Prevention Effect, Fusarium head blight",[1]; ipconazole 5 g a.i./Mu,43.84%
same,"Disease Index Prevention Effect, Fusarium head blight",[1]; ipconazole 10 g a.i./Mu,62.41%
same,"Disease Index Prevention Effect, Rust",barley rust,74.25% and 82.65%
same,"Disease Index Prevention Effect, Actual Prevention Effect",wheat scab; ipconazole 4 g a.i./Mu,42.65%
same,"Disease Index Prevention Effect, Actual Prevention Effect",wheat scab; ipconazole 6 g a.i./Mu,53.45%
same,"Disease Index Prevention Effect, Actual Prevention Effect",wheat scab; ipconazole 8 g a.i./Mu,67.58%
same,"Disease Index Prevention Effect, Actual Prevention Effect",wheat scab; ipconazole 10 g a.i./Mu,72.41%
same,"Disease Index Prevention Effect, Actual Prevention Effect",wheat scab; ipconazole 16 g a.i./Mu,80.33%
same,inhibition at 0.0125 µg/mL,Fusarium asiaticum; [4],29.5%
same,inhibition at 0.025 µg/mL,Fusarium asiaticum; [4],38.6%
same,inhibition at 0.05 µg/mL,Fusarium asiaticum; [4],41.7%
same,inhibition at 0.1 µg/mL,Fusarium asiaticum; [4],> 50%
same,inhibition at 0.2 µg/mL,Fusarium asiaticum; [4],76.6%
same,Grain Toxin Content,[2]; ipconazole 5 g a.i./Mu,3.54 mg of DON/Kg of kernel
same,Toxin Reduction Percentage,[2]; ipconazole 5 g a.i./Mu,58.50%
same,Grain Toxin Content,[2]; ipconazole 10 g a.i./Mu,2.57 mg of DON/Kg of kernel
same,Toxin Reduction Percentage,[2]; ipconazole 10 g a.i./Mu,69.87%
same,DON Biosynthesis Inhibition Rate,[3],0.36% and 0.31%
same,Toxin Production Capability,[3],87.68 μgDON/g by dry weight of hyphae and 52.16 μgDON/g by dry weight of hyphae
same,inhibitory effects on the toxin biosynthesis capability of the fusaria,[3],does not have significant inhibitory effects
same,DON Contamination Reduction Rate,wheat scab fungi; ipconazole 4 g a.i./Mu,49.11%
same,Grain Toxin Content,wheat scab fungi; ipconazole 4 g a.i./Mu,5.41 μg of toxin/g of kernels
same,DON Contamination Reduction Rate,wheat scab fungi; ipconazole 6 g a.i./Mu,59.08%
same,Grain Toxin Content,wheat scab fungi; ipconazole 6 g a.i./Mu,4.35 μg of toxin/g of kernels
same,DON Contamination Reduction Rate,wheat scab fungi; ipconazole 8 g a.i./Mu,61.24%
same,Grain Toxin Content,wheat scab fungi; ipconazole 8 g a.i./Mu,4.12 μg of toxin/g of kernels
same,DON Contamination Reduction Rate,wheat scab fungi; ipconazole 10 g a.i./Mu,63.78%
same,Grain Toxin Content,wheat scab fungi; ipconazole 10 g a.i./Mu,3.85 μg of toxin/g of kernels
same,DON Contamination Reduction Rate,wheat scab fungi; ipconazole 16 g a.i./Mu,71.50%
same,Grain Toxin Content,wheat scab fungi; ipconazole 16 g a.i./Mu,3.03 μg of toxin/g of kernels
OCC1=C[C@H](N[C@H]2C[C@H](CO)[C@@H](O[C@@H]3O[C@H](CO)[C@@H](O)[C@H](O)[C@H]3O)[C@H](O)[C@H]2O)[C@H](O)[C@@H](O)[C@@H]1O [Jinggangmycin],"Disease Index Prevention Effect, Leaf Blight",barley leaf blight; jinggangmycin 5 g a.i./Mu,0%
same,"Disease Index Prevention Effect, Leaf Blight",barley leaf blight; jinggangmycin 10 g a.i./Mu,0%
same,"Disease Index Prevention Effect, Powdery Mildew",barley powdery mildew; jinggangmycin 5 g a.i./Mu,0%
same,"Disease Index Prevention Effect, Powdery Mildew",barley powdery mildew; jinggangmycin 10 g a.i./Mu,0%
same,inhibition at 50 µg/mL,"Fusarium graminearum; Fusarium graminearum, read-out: Growth Inhibition Rate, sensitive strains, 50 μg/mL",6.5 to 7.8%
same,synergistic effect for ipconazole in inhibiting hyphal growth in vitro,Fusarium graminearum; jinggangmycin 0.1-50 μg/mL with ipconazole 0.05 or 0.1 μg/mL,does not have a synergistic effect
same,Average Fungal Colony Diameter,"Fusarium graminearum; sensitive strains, 0.1 μg/mL",76.3 mm
same,Average Fungal Colony Diameter,"Fusarium graminearum; sensitive strains, 1 μg/mL",76.2 mm
same,Average Fungal Colony Diameter,"Fusarium graminearum; sensitive strains, 10 μg/mL",75.4 mm
same,Average Fungal Colony Diameter,"Fusarium graminearum; sensitive strains, 50 μg/mL",70.3 mm
same,Growth Inhibition Rate,"Fusarium graminearum; sensitive strains, 50 μg/mL",6.52%
same,"Disease Index Prevention Effect, Fusarium head blight",[1]; jinggangmycin 5 g a.i./Mu,4.54%
same,"Disease Index Prevention Effect, Fusarium head blight",[1]; jinggangmycin 10 g a.i./Mu,12.58%
same,"Disease Index Prevention Effect, Rust",barley rust,0%
same,Rate of Inhibition on Relative Expression Level of Tri5 Gene,Tri5 gene,66% and 84% and 87% and 90% and 59%
same,"Disease Index Prevention Effect, Actual Prevention Effect",wheat scab; 2 g a.i./Mu,0%
same,"Disease Index Prevention Effect, Actual Prevention Effect",wheat scab; jinggangmycin 4 g a.i./Mu,8.65%
same,"Disease Index Prevention Effect, Actual Prevention Effect",wheat scab; jinggangmycin 8 g a.i./Mu,10.24%
same,"Disease Index Prevention Effect, Actual Prevention Effect",wheat scab; jinggangmycin 10 g a.i./Mu,14.31%
same,"Disease Index Prevention Effect, Actual Prevention Effect",wheat scab; jinggangmycin 12 g a.i./Mu,16.54%
same,"Disease Index Prevention Effect, Actual Prevention Effect",wheat scab; jinggangmycin 16 g a.i./Mu,18.65%
same,Average Fungal Colony Diameter,Fusarium asiaticum,75.6 mm and 69.4 mm and 76.3 mm
same,inhibitory activity on the growth in vitro,Fusarium asiaticum,almost does not have inhibitory activity
same,synergistic effect for ipconazole in inhibiting hyphal growth in vitro,Fusarium asiaticum,does not have a synergistic effect
same,inhibition at 50 µg/mL,Fusarium asiaticum; [4],6.5 to 7.8%
same,Grain Toxin Content,[2]; jinggangmycin 5 g a.i./Mu,5.28 mg of DON/Kg of kernel
same,Toxin Reduction Percentage,[2]; jinggangmycin 5 g a.i./Mu,38.10%
same,Grain Toxin Content,[2]; jinggangmycin 10 g a.i./Mu,4.62 mg of DON/Kg of kernel
same,Toxin Reduction Percentage,[2]; jinggangmycin 10 g a.i./Mu,45.84%
same,inhibition at 1 µg/mL,[3]; 168 h,28.6%
same,inhibition at 10 µg/mL,[3]; 168 h,35.5%
same,inhibition at 100 µg/mL,[3]; 168 h,45.2%
same,inhibition at 1000 µg/mL,[3]; 168 h,65.5%
same,inhibition at 10000 µg/mL,[3]; 168 h,75.9%
same,inhibition at 1 µg/mL,[3]; 336 h,1.7%
same,inhibition at 10 µg/mL,[3]; 336 h,7.87%
same,inhibition at 100 µg/mL,[3]; 336 h,29.9%
same,inhibition at 1000 µg/mL,[3]; 336 h,57%
same,inhibition at 10000 µg/mL,[3]; 336 h,75.4%
same,DON Contamination Reduction Rate,wheat scab fungi; 2 g a.i./Mu,16.18%
same,Grain Toxin Content,wheat scab fungi; 2 g a.i./Mu,8.91 μg of toxin/g of kernels
same,DON Contamination Reduction Rate,wheat scab fungi; jinggangmycin 4 g a.i./Mu,19.00%
same,Grain Toxin Content,wheat scab fungi; jinggangmycin 4 g a.i./Mu,8.61 μg of toxin/g of kernels
same,DON Contamination Reduction Rate,wheat scab fungi; jinggangmycin 8 g a.i./Mu,37.72%
same,Grain Toxin Content,wheat scab fungi; jinggangmycin 8 g a.i./Mu,6.62 μg of toxin/g of kernels
same,DON Contamination Reduction Rate,wheat scab fungi; jinggangmycin 10 g a.i./Mu,41.58%
same,Grain Toxin Content,wheat scab fungi; jinggangmycin 10 g a.i./Mu,6.21 μg of toxin/g of kernels
same,DON Contamination Reduction Rate,wheat scab fungi; jinggangmycin 12 g a.i./Mu,50.99%
same,Grain Toxin Content,wheat scab fungi; jinggangmycin 12 g a.i./Mu,5.21 μg of toxin/g of kernels
same,DON Contamination Reduction Rate,wheat scab fungi; jinggangmycin 16 g a.i./Mu,54.37%
same,Grain Toxin Content,wheat scab fungi; jinggangmycin 16 g a.i./Mu,4.85 μg of toxin/g of kernels
"CCOC(=O)C(C#N)=C(N)c1ccccc1 [Phenamacril, phenamacril]",EC50,Fusarium graminearum,0.165 µg/mL
